For series [1], the target named is T1, novel mammalian opioid receptor (MSOR, LC132) (Rattus norvegicus, UniProt P35370).
T1 construct: The entire coding region of the receptor cDNA insert was subcloned in to the RcRSV vector; expressed in transfected cells
Type of series: binding.

In series [2] the test system is untransfected COS-7 and Ltk- cells. The series can be described thus: Radioligand binding to membranes of untransfected cells (control). Particulars: untransfected COS-7 and Ltk- cell membranes.
A short description of series [3]: Open-field observation of behavioral signs after peptide administration. Type of series: in vivo, mice. The protocol:
(§1) For these experiments, the peptide was administered intracerebroventricularly (i.c.v.) and intrathecally (i.t.) in mice. Immediately after peptide administration, mice were placed in transparent boxes in groups of three and behavioral signs recorded. Emphasis was placed on signs indicative of depressant, stimulant and autonomic effects of the peptide (as described by Irwin, 1968, Psychopharmacologia 13: 222). […] The effects of the peptide on horizontal (FIG. 10A) and vertical (FIG. 10B) locomotor activity was measured using Digiscan Animal Activity Monitors (Omnitech, Columbus Ohio). The values for horizontal and vertical locomotor activity represent the total number of interruptions of the horizontal and vertical sensors during the first 10 min following administration of the peptide. Data are shown as the mean ± standard error of the mean.

Series [4] is described as follows: Horizontal and vertical locomotor activity (Digiscan Animal Activity Monitors). Type of series: in vivo, mice. To be noted: i.c.v., 0.1-10 nmol/2 μL/mouse, first 10 min. On the procedure:
as §1

Series [5] is described as follows: Hot plate test of nociception; toe- and tail-pinch reflexes. Type of series: in vivo, mice. The protocol: Groups of 6-8 male MORO mice (weight=22 g) were administered phosphate buffered saline (open circles) or varying doses of the orphanin peptide. Reaction time represents the time taken for the mice to lick their paws. The hot plate was set to 58° C., and a cutoff time of 60 sec was used. […] (designated by an asterisk). This observation was most likely related to a decrease in locomotor activity and muscle tone.

In series [6] the target is T2, novel mammalian MSOR opioid receptor (methadone-specific opioid receptor) (rat, UniProt P35370 1-367).
T2 construct: cAMP assays used whole cells; also called LC132; novel mammalian opioid receptor
T2 chain: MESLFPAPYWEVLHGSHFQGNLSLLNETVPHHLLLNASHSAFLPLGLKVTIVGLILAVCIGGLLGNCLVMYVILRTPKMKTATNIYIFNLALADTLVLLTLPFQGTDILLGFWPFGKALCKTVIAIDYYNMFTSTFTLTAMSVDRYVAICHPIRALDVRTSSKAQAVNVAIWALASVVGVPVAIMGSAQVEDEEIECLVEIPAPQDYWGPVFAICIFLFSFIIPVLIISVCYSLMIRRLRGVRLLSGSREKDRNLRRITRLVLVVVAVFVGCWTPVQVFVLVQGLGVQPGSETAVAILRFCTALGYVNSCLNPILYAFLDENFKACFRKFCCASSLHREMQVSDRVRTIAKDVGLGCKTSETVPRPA
Description: assay not described.

Series [7] deals with T2, novel mammalian MSOR opioid receptor …. The series can be described thus: cell-based or functional assay.
Series [8] has the same target. The series can be described thus: saturation radioligand binding (scintillation proximity assay) to membranes of MSOR-transfected CHO cells (LC-7), Scatchard analysis. A general note: In a scintillation proximity assay essentially only radioactivity close to the scintillant gives light.

For orientation: Kd means the constant that tells how readily two partners part at equilibrium.

T1 sequence (P35370 whole entry): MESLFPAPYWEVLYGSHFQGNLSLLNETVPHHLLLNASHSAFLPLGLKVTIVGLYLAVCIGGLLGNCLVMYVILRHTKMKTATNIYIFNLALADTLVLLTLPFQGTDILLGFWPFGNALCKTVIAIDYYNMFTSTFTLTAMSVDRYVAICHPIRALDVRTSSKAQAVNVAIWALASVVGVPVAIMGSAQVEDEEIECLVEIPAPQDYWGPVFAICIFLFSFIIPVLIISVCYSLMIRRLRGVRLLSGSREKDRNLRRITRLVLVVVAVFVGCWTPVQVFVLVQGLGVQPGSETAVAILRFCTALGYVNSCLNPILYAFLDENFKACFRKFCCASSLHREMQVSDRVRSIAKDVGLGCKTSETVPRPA

With `C[C@@H](NC(=O)[C@@H](N)Cc1ccc(O)cc1)C(=O)NCC(=O)N(C)[C@@H](Cc1ccccc1)C(=O)NCCO` [DAMGO, Tyr-DAla-Gly-Met-Phe-Gly-ol], the “specific binding of the radioactively-labeled opioid agonist or antagonist” value in series [1] is given as “no specific binding”. Still for that read-out and setting: with `CCC12CCN(CC3(O)CC3)C(Cc3ccc(O)cc31)C2(C)C` (centres unmarked) [bremacozine] the entry was “no specific binding”; with `CN1CC[C@]23c4c5ccc(O)c4O[C@H]2[C@@H](O)CC[C@H]3[C@H]1C5` [dihydromorphine], “no specific binding”; with `CC[C@]12CCN(CC3CC3)[C@H](C(=O)c3ccc(O)cc31)[C@@H]2C` [ethylketocyclazocine], “no specific binding”. Regarding `CCC(=O)C(CC(C)N(C)C)(c1ccccc1)c1ccccc1` (centres unmarked) [methadone], in series [1], the Bmax is reported as 400-450 femtomoles/μg protein and the “specific binding of the radioactively-labeled opioid agonist or antagonist” value is listed as “specific binding was found”. For the same molecule, the “endogenous specific binding of the radioligand” value in series [2] is recorded as “no or negligible amounts”. Turning to `C=CCN1CC[C@]23c4c5ccc(O)c4O[C@H]2C(=O)CC[C@@]3(O)[C@H]1C5` [naloxone], the “endogenous specific binding of the radioligand” value in series [2] is “endogenous low levels of specific”.

For the molecule `CC(C)C[C@H](NC(=O)[C@H](CCCCN)NC(=O)[C@H](CCCNC(=N)N)NC(=O)[C@H](C)NC(=O)[C@H](CO)NC(=O)[C@H](CCCCN)NC(=O)[C@H](CCCNC(=N)N)NC(=O)[C@H](C)NC(=O)CNC(=O)[C@@H](NC(=O)[C@H](Cc1ccccc1)NC(=O)CNC(=O)CNC(=O)[C@@H](N)Cc1ccccc1)[C@@H](C)O)C(=O)N[C@@H](C)C(=O)N[C@@H](CC(N)=O)C(=O)N[C@@H](CCC(N)=O)C(=O)O` [orphanin FQ], in series [3], the ataxia entry is recorded as “ataxia”, the muscle tone entry is on record as “decrease in muscle tone” and the righting reflex result is listed as “loss of righting reflex”. In series [3] (i.c.v. and i.t. administration), the “influence on locomotor activity” value was “profound influence on locomotor activity”. Further, in series [4], the horizontal locomotion result is reported as “decrease” and the vertical locomotion entry is given as “decrease”. Further, the “toe- and tail-pinch reflexes” value in series [5] (all doses tested) is recorded as “normal”. For the same molecule, the inhibition of nociception entry in series [5] (i.c.v., all doses except the highest, 10 nmol/mouse) is listed as “No significant inhibition”. In addition, in series [5] (i.c.v., hot plate 58° C., cutoff 60 sec), the “analgesic effect in hot plate test” value was “little analgesic effect”. Moreover, the analgesic effect result in series [5] (i.t., 2.5-10 nmol/4 μL/animal) is “No analgesic effect”. The “motor effects at the highest dose” value in series [5] (i.t., highest dose) is “hindlimb paralysis and decrease in locomotor activity”. As to β-endorphin, the “specific binding of the radioactively-labeled opioid agonist or antagonist” value in series [1] is given as “no specific binding”. On to YGGFMTSEKSQTPLVT [α-endorphin], for which, in series [6], the binding result is reported as “no binding”.

As for YGGFLRRQFKVVT [dynorphin B], in series [6], the binding result is given as “no binding”. With YGGFL [Leu-Enkephalin], the binding result in series [6] is recorded as “no binding”. The same measure, in the same setting: with YGGFLRRIRPKLKWDNQ [dynorphin A] the entry was “no binding”.

Turning to FGGFTGARKSARKYANQ [Y14-orphanin FQ], the “cAMP inhibition assay in MSOR-transfected CHO cells, EC50” value in series [7] came to 1 nM.

B1: monoiodinated Y14-orphanin FQ (peptide)
peptide: FGGFTGARKSARKYANQ
modifications: monoiodotyrosine at position 14 (125I in the binding assay), made by the chloramine T method
notes: also called I-Y14
The molecule B1 came in with a Kd in series [8] of 0.3 nM.

Values taken from patent publication US6406866B1 (OREGON HEALTH SCIENCES UNIVERSITY, dated 2002).
